Measured values: patent US9371337B2, “β-lactamase inhibitors” (The Regents of the University of California, priority 2011, dated 2016)

Key:
[1] = test system: C. freundii overproducing chromosomally-mediated class C β-lactamase; test: MIC of third-generation cephalosporins alone and with compounds 4 or 9 (Table 3); type: cell-based, Citrobacter freundii; conditions: antibiotic alone
Text: (§1) Antimicrobial activity was investigated quantitatively to determine the minimum inhibitory concentrations (MICs) of the β-lactam/inhibitor combination necessary to inhibit the bacterial growth (Table 3). The MICs of β-lactams alone against the strains corresponded to a high level of resistance according to Clinical and Laboratory Standards Institute (CLSI) standards. (Clinical and Laboratory Standards Institute, Performance standards for antimicrobial susceptibility testing, 20th Informational Supplement, M100-S20 2010) The compounds had no measurable antibiotic activity when used alone.
(§2) Susceptibility testing was performed and interpreted following the guidelines of CLSI. (Clinical and Laboratory Standards Institute, Performance standards for antimicrobial susceptibility testing, 20th Informational Supplement, M100-S20 2010) The compounds were dissolved in 50% DMSO, and dilutions were performed using Muller-Hinton medium. An adequate final concentration was obtained to determine the minimum inhibitory concentrations (MICs). The concentration of DMSO was maintained below 5%. The inhibitors were tested for synergy with the third-generation β-lactams ceftazidime and cefotaxime against several clinical bacteria. […] Each value reported reflects the average of three independent experiments. […] A Klebsiella pneumoniae isolate produced the inducible plasmid-mediated class C enzyme DHA-1. The Friedman's test and the Wilcoxon signed rank test were used to compare MIC values. Statistical significance was established at p<0.05.

[2] = test system: P. aeruginosa overproducing chromosomally-mediated class C β-lactamase; test: as above; type: cell-based, Pseudomonas aeruginosa; conditions: antibiotic alone
Text: as §1, §2

[3] = test system: K. pneumoniae producing the plasmid-mediated class C β-lactamase DHA-1; test: as above; type: cell-based, Klebsiella pneumoniae; conditions: antibiotic alone
Text: as §1, §2

[4] = test system: E. coli overproducing chromosomally-mediated class C β-lactamase; test: as above; type: cell-based, Escherichia coli; conditions: antibiotic alone
Text: as §1, §2

[5] = test system: K. pneumoniae, AmpC-overproducing; test: MIC of third-generation cephalosporins alone and with compounds (Table 6); type: cell-based, Klebsiella pneumoniae; conditions: antibiotic alone
Protocol: (§3) The anti-resistance activity of inhibitors was investigated by the determination of the minimum inhibitory concentrations (MICs) of the β-lactam/inhibitor combination necessary to inhibit the growth of clinically-isolated bacteria resistant to third-generation cephalosporins via expression of class A or class C β-lactamases (Table 6).
(§4) Susceptibility testing was performed and interpreted following the guidelines of CLSI. (Clinical and Laboratory Standards Institute, Performance standards for antimicrobial susceptibility testing, 20th Informational Supplement, M100-S20 2010) The compounds were dissolved in 50% DMSO, and dilutions were performed using Muller-Hinton medium. An adequate final concentration was obtained to determine the minimum inhibitory concentrations (MICs). The concentration of DMSO was maintained below 5%. The inhibitors were tested for synergy with the third-generation β-lactams ceftazidime and cefotaxime against several clinical bacteria. The ratio of β-lactams to inhibitors was 1:4. Each value reported reflects the average of three independent experiments. […] The Friedman's test and the Wilcoxon signed rank test were used to compare MIC values. Statistical significance was established at p<0.05.
(§5) Table 6. MICs (μg/ml) of third-generation cephalosporins alone and in association with the compounds (ratio 1/4) for clinical bacteria. CTX, cefotaxime and CAZ, ceftazidime. ^1, AmpC-overproducing bacteria; ^2, CTX-M-14-producing E. coli; ^3, KPC-2-producing K. pneumoniae; ^4, OXA-48-producing K. pneumoniae; ^5, NDM-1-producing C. freundii.

[6] = test system: OXA-48-producing K. pneumoniae; test: as above; type: cell-based, Klebsiella pneumoniae; conditions: antibiotic alone
Protocol: as §3, §4, §5

[7] = test system: AmpC-overproducing Escherichia coli strain 4; test: Mouse model of bacteremia and sepsis, survival; type: in vivo, OF1 mice; conditions: 120 h post infection; ip at 0.5, 3.5, 6.5 h; imipenem 50 mg/kg, cefotaxime 50 mg/kg, cefotaxime:CR161 50:200 mg/kg
Protocol: FIG. 17. Percentage of survival of mice infected with AmpC-overproducing Escherichia coli over the course of 5 days (120 h). Mice were inoculated by intraperitoneal injection with AmpC-overproducing Escherichia coli strain 4 (1±0.5 10^9 colony-forming units) and treated at 0.5, 3.5, 6.5 h after infection by intraperitoneal injection of 50 mg/kg imipenem (□, n=20), 50:200 mg/kg cefotaxime:CR161 combination (▪, n=17), 50 mg/kg cefotaxime (●, n=20) or sterile isotonic saline (◯, n=20).
Efficacy in a mouse model of infection. We had not observed such substantial reversal of bacterial resistance to β-lactams, across such a broad spectrum of clinical isolates, for previous series of boronic acid inhibitors of β-lactamase; indeed, this lack of efficacy had motivated this study. These new cell-culture MIC values inspired us to investigate the efficacy of one of these compounds in a mouse model of bacteremia and sepsis. […] Mice were treated with cefotaxime alone, cefotaxime combined with compound CR161, with sterile isotonic saline, and with imipenem as a reference treatment of systemic infections by cephalosporin-resistant enterobacteriaceae (FIG. 17); 20 mice were used in each clade. […]
OF1 mice 4-5 weeks of age and weighing 20-25 g were used in this study. […] The survival of mice in each group was monitored every 6 h for 5 days after infection. […]

## CO/N=C(\C(=O)N[C@@H]1C(=O)N2C(C(=O)O)=C(COC(C)=O)CS[C@H]12)c1csc(N)n1 [Cefotaxime]
[1]
  MIC, cephalosporin alone: 16 µg/mL
[2]
  MIC, cephalosporin alone: >128 µg/mL
[3]
  MIC, cephalosporin alone: 8 µg/mL
[4]
  MIC, cephalosporin alone: 8 µg/mL
[5]
  MIC, cephalosporin alone: 8 µg/mL
[6]
  MIC, cephalosporin alone: 256 µg/mL
[7]
  survival: 15%
